In patent US8957238B2, “Process for preparing malathion for pharmaceutical use” (priority 2005, dated 2015):
Like-named read-outs stand apart in the source and are kept apart here.

Columns and labels:
[1] = tested on: cholinesterase enzymes; details: cited from earlier work
[2] = can cause death from hypoxia; cited from earlier work
[3] = cited from earlier work
[4] = tested on: mice; details: after storage for 6 months at 40° C.; cited from earlier work
[5] = target: acetylcholinesterase (Homo sapiens, UniProt P22303); details: cited from earlier work
[6] = tested on: people; details: after spraying during insect eradication programs; cited from earlier work
[7] = Storage stability of malathion prepared by the process of the invention, HPLC after storage (Example 7, Table IV); assay type: physicochemical
Description: The malathion prepared by the process of the invention was tested for storage stability. Malathion prepared by the process of the invention was stored under a variety of different temperature and humidity conditions for up to three (3) months. […] The purity of the sample was determined after storage using HPLC.
Table IV presents the analytical data showing storage of two, different batches of malathion after storage under a variety of different conditions.
MeOOSPO, MeOSSPO, malaxon, MeOOSPS, diethyl fumarate, dimethyl malathion, methyl malathion, O,O-methyl, ethyl S-(1,2-dicarboethoxy)ethyl phosphorodithioate, tetraethyl dithiosuccinate, isomalathion, malathion carboxylic acids, mercaptosuccinate and the tetraethyl thiodisuccinate were assayed for by HPLC. The mobile phase was a mixture of water, acetonitrile and methanol (480:370:150) and one drop of 85% phosphoric acid for each […] of mobile phase. Method validation was performed and system reproducibility, linearity, repeatability, intermediate precision, recovery of related compounds and sensitivity were assessed according to standard methology (U.S. Pharmacopeia, 2004, U.S. Pharmacopeial Convention, Inc., 12601 Twinbrook Parkway, Rockville, Md. 20852). If necessary, the mobile phase composition and/or flow rate were adjusted to meet the chromatographic parameters.

[8] = Storage at 25° C., 60% relative humidity for 3 months
[9] = Storage at 30° C. and 60% relative humidity for 3 months
[10] = Storage at 40° C. and 75% relative humidity for 3 months

acetylcholinesterase, sequence (P22303 32-614): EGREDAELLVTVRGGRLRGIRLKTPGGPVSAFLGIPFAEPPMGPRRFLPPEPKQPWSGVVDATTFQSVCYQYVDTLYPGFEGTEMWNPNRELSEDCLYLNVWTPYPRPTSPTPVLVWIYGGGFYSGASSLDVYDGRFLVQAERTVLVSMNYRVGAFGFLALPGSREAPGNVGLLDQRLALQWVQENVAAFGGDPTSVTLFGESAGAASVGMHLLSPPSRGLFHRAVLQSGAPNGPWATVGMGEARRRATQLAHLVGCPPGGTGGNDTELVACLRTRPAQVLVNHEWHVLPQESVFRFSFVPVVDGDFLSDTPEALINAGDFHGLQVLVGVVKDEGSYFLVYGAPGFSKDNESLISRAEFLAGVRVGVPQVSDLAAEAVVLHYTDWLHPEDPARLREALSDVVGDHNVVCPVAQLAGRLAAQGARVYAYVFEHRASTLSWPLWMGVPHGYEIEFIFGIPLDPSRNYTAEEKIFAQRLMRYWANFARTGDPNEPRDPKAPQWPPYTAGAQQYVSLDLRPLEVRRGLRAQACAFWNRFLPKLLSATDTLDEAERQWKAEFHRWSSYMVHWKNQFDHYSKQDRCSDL

For `CCOC(=O)CC(SP(=O)(OC)OC)C(=O)OCC` (centres unmarked) [Malaoxon], the “inhibition of cholinesterase enzymes” value [1] is given as “inhibits cholinesterase enzymes”.
In the case of `CCOC(=O)CC(SP(=S)(OC)OCC)C(=O)OCC` (stereo not drawn) [O,O-methyl,ethyl-S-(1,2-dicarboethoxy)ethyl-phosphorodithioate], the pulmonary toxicity [2] is given as “exhibit pulmonary toxicity”.
In the case of `CCOC(=O)CC(SP(=S)(OC)OC)C(=O)OCC` (centres unmarked) [malathion, [(dimethoxyphosphinothioyl)thio]butanedioic acid diethyl ester], the “isomalathion content of malathion” value ([3]; after storage for 6 months at 40° C.) is listed as 0.45%, the “isomalathion content of malathion” value ([3]; before storage) is listed as 0.2% and the “increase in toxicity as measured by LD50 in mice” value [4] is listed as 35%.
In the case of `CCOC(=O)CC(SP(=O)(OC)SC)C(=O)OCC` (centres unmarked) [Isomalathion], the “activity against acetylcholinesterase as compared with malathion” value [5] is given as “approximately 1,000 times”, the death in people [6] is given as “cause death in people” and the pulmonary toxicity [2] is given as “exhibit pulmonary toxicity”.
For `CCOC(=O)CC(SP(=S)(OC)OC)C(=O)OCC` (centres unmarked) [Batch I, [(dimethoxyphosphinothioyl)thio]butanedioic acid diethyl ester], the “Diethyl fumarate in malathion” value ([7]; Baseline, time 0) was <0.01 % (w/w), the “Dimethyl malathion in malathion” value ([7]; Baseline, time 0) was <0.02 % (w/w) and the Malaoxon in malathion ([7]; Baseline, time 0) was <0.05 % (w/w). The “Malathion Purity” value ([7]; Baseline, time 0) was 99.5 % (w/w), the MeOOSPO in malathion ([7]; Baseline, time 0) was <0.04 % (w/w) and the MeOOSPS in malathion ([7]; Baseline, time 0) was 0.1 % (w/w). For the same compound, the MeOSSPO in malathion ([7]; Baseline, time 0) was <0.02 % (w/w), the “Methyl malathion in malathion” value ([7]; Baseline, time 0) was 0.06 % (w/w) and the “Diethyl fumarate in malathion” value ([7]; Storage at 5° C. for 3 months) was <0.01 % (w/w). The “Dimethyl malathion in malathion” value ([7]; Storage at 5° C. for 3 months) was <0.02 % (w/w), the Malaoxon in malathion ([7]; Storage at 5° C. for 3 months) was <0.02 % (w/w) and the “Malathion Purity” value ([7]; Storage at 5° C. for 3 months) was 99.7 % (w/w). For the same compound, the MeOOSPO in malathion ([7]; Storage at 5° C. for 3 months) was <0.04 % (w/w), the MeOOSPS in malathion ([7]; Storage at 5° C. for 3 months) was 0.1 % (w/w) and the MeOSSPO in malathion ([7]; Storage at 5° C. for 3 months) was <0.02 % (w/w). The “Methyl malathion in malathion” value ([7]; Storage at 5° C. for 3 months) was 0.06 % (w/w), the “Diethyl fumarate in malathion” value [7, 8] was <0.01 % (w/w) and the “Dimethyl malathion in malathion” value [7, 8] was <0.02 % (w/w). The Malaoxon in malathion [7, 8] was <0.02 % (w/w), the “Malathion Purity” value [7, 8] was 99.0 % (w/w) and the MeOOSPO in malathion [7, 8] was <0.04 % (w/w). For the same compound, the MeOOSPS in malathion [7, 8] was 0.1 % (w/w), the MeOSSPO in malathion [7, 8] was <0.02 % (w/w) and the “Methyl malathion in malathion” value [7, 8] was 0.06 % (w/w). For the same compound, the “Diethyl fumarate in malathion” value [7, 9] was <0.01 % (w/w), the “Dimethyl malathion in malathion” value [7, 9] was <0.02 % (w/w) and the Malaoxon in malathion [7, 9] was <0.02 % (w/w). The “Malathion Purity” value [7, 9] was 99.0 % (w/w), the MeOOSPO in malathion [7, 9] was <0.04 % (w/w) and the MeOOSPS in malathion [7, 9] was 0.1 % (w/w). For the same compound, the MeOSSPO in malathion [7, 9] was <0.02 % (w/w), the “Methyl malathion in malathion” value [7, 9] was 0.06 % (w/w) and the “Diethyl fumarate in malathion” value [7, 10] was <0.02 % (w/w). The “Dimethyl malathion in malathion” value [7, 10] was <0.02 % (w/w), the Malaoxon in malathion [7, 10] was <0.05 % (w/w) and the “Malathion Purity” value [7, 10] was 97.5 % (w/w). The MeOOSPO in malathion [7, 10] was 0.05 % (w/w), the MeOOSPS in malathion [7, 10] was 0.2 % (w/w) and the MeOSSPO in malathion [7, 10] was <0.02 % (w/w). The “Methyl malathion in malathion” value [7, 10] was 0.06 % (w/w).
For `COP(=O)(OC)SC` [MeOOSPO, O,O,S-trimethyl phosphorothioate], the pulmonary toxicity [2] is given as “exhibit pulmonary toxicity”.
In the case of `CCOC(=O)CC(SP(=S)(OC)OC)C(=O)OCC` (centres unmarked) [Batch II, [(dimethoxyphosphinothioyl)thio]butanedioic acid diethyl ester], the “Diethyl fumarate in malathion” value ([7]; Baseline, time 0) is reported as <0.06 % (w/w), the “Dimethyl malathion in malathion” value ([7]; Baseline, time 0) is reported as <0.02 % (w/w) and the Malaoxon in malathion ([7]; Baseline, time 0) is reported as <0.05 % (w/w). For the same compound, the “Malathion Purity” value ([7]; Baseline, time 0) was 99.5 % (w/w), the MeOOSPO in malathion ([7]; Baseline, time 0) was <0.04 % (w/w) and the MeOOSPS in malathion ([7]; Baseline, time 0) was 0.09 % (w/w). The MeOSSPO in malathion ([7]; Baseline, time 0) was <0.02 % (w/w), the “Methyl malathion in malathion” value ([7]; Baseline, time 0) was 0.08 % (w/w) and the “Diethyl fumarate in malathion” value ([7]; Storage at 5° C. for 3 months) was <0.01 % (w/w). For the same compound, the “Dimethyl malathion in malathion” value ([7]; Storage at 5° C. for 3 months) was <0.02 % (w/w), the Malaoxon in malathion ([7]; Storage at 5° C. for 3 months) was <0.05 % (w/w) and the “Malathion Purity” value ([7]; Storage at 5° C. for 3 months) was 99.7 % (w/w). For the same compound, the MeOOSPO in malathion ([7]; Storage at 5° C. for 3 months) was <0.04 % (w/w), the MeOOSPS in malathion ([7]; Storage at 5° C. for 3 months) was 0.1 % (w/w) and the MeOSSPO in malathion ([7]; Storage at 5° C. for 3 months) was <0.09 % (w/w). For the same compound, the “Methyl malathion in malathion” value ([7]; Storage at 5° C. for 3 months) was 0.07 % (w/w), the “Diethyl fumarate in malathion” value [7, 8] was <0.01 % (w/w) and the “Dimethyl malathion in malathion” value [7, 8] was <0.02 % (w/w). For the same compound, the Malaoxon in malathion [7, 8] was <0.05 % (w/w), the “Malathion Purity” value [7, 8] was 99.4 % (w/w) and the MeOOSPO in malathion [7, 8] was <0.04 % (w/w). The MeOOSPS in malathion [7, 8] was 0.09 % (w/w), the MeOSSPO in malathion [7, 8] was <0.02 % (w/w) and the “Methyl malathion in malathion” value [7, 8] was 0.07 % (w/w). For the same compound, the “Diethyl fumarate in malathion” value [7, 9] was <0.01 % (w/w), the “Dimethyl malathion in malathion” value [7, 9] was <0.02 % (w/w) and the Malaoxon in malathion [7, 9] was <0.05 % (w/w). For the same compound, the “Malathion Purity” value [7, 9] was 99.1 % (w/w), the MeOOSPO in malathion [7, 9] was <0.04 % (w/w) and the MeOOSPS in malathion [7, 9] was 0.1 % (w/w). The MeOSSPO in malathion [7, 9] was <0.02 % (w/w), the “Methyl malathion in malathion” value [7, 9] was 0.08 % (w/w) and the “Diethyl fumarate in malathion” value [7, 10] was <0.02 % (w/w). For the same compound, the “Dimethyl malathion in malathion” value [7, 10] was <0.02 % (w/w), the Malaoxon in malathion [7, 10] was <0.05 % (w/w) and the “Malathion Purity” value [7, 10] was 97.4 % (w/w). The MeOOSPO in malathion [7, 10] was 0.05 % (w/w), the MeOOSPS in malathion [7, 10] was 0.2 % (w/w) and the MeOSSPO in malathion [7, 10] was <0.02 % (w/w). The “Methyl malathion in malathion” value [7, 10] was 0.08 % (w/w).
